Experimental data as given in patent publication US20150368297A1, “Novel Peptide Compound for Inhibiting Restenosis and Promoting Re-Endothelialization and Method for Preparing the Same” (Chonnam National University Hospital, priority 2014, published 2015).

Test system: vascular smooth muscle cell (SMC)
Test: Effect on proliferation of vascular smooth muscle cell (SMC), XTT assay
Assay type: cell-based
Details: 1 uM compound; measured at 1, 4 and 7 days; versus non-treated control; FIG. 1
Experimental: As cells used in a cell culture, the vascular smooth muscle cell (SMC) which is a smooth muscle cell, and the human umbilical vein endothelial cell (HUVEC) which is the cell for promoting vascular re-endothelialization were purchased from Korea Cell Line Bank, respectively. The cell culture was performed by culturing the vascular smooth muscle cell (SMC) and the human umbilical vein endothelial cell (HUVEC) in Dulbecoco's modified eagle medium (DMEM) with 10% fetal bovine serum (FBS) under conditions of 37° C. and 5% CO2. […]
(§1) 5×10^4 of SMC cells cultured according to Example 2 were cultured in the 24-well cell culture plate and then treated with 1 uM of the peptide compound prepared by Example 2 (hereinafter, referred to as ‘EVR-P’). […] After the reaction, 200 ul of the culture medium was transferred from each well to a 96 well cell culture dish, and degree of color change was measured from absorbance at a 450 nm wavelength by a spectroscopy.
as §1, with “the known Everolimus (EVR)(LC Laboratories).” for “the peptide compound prepared by Example 2 (hereinafter, referred to as ‘EVR-P’).”, “to the” for “to a”

CO[C@H]1C[C@@H]2CC[C@@H](C)[C@@](O)(O2)C(=O)C(=O)N2CCCC[C@H]2C(=O)O[C@H]([C@H](C)C[C@@H]2CC[C@@H](OCCO)[C@H](OC)C2)CC(=O)[C@H](C)/C=C(\C)[C@@H](O)[C@@H](OC)C(=O)[C@H](C)C[C@H](C)/C=C/C=C/C=C/1C [EVR, Everolimus]
SMC cell proliferation (XTT, absorbance at 450 nm): cell proliferation was inhibited
